From US20230115350A1 (Cedilla Therapeutics, Inc., priority 2021, published 2023)

Assays:
[1] = target: TEAD1 protein (YAP Binding Domain) (Homo sapiens, UniProt P28347); assay: TEAD1 lipid pocket compound displacement assay (TR-FRET, Cy5-probe); settings: 60 minutes incubation at room temperature; TR-FRET 665 nm/620 nm; read-out: CDA IC50
Description: Compound Displacement Assay.
A TEAD1 lipid pocket displacement assay was carried out according to the following protocol. Purified His-tagged TEAD1 protein (YAP Binding Domain) was pre-mixed with a Cy5-probe (Cy5-conjugated to a small molecule that binds in the TEAD1 lipid pocket) and Terbium-labeled anti-His antibody (Cisbio Cat 61HI2TLB). The binding of the Cy5-probe to anti-His-Tb/His-tag TEAD1 complex yielded a TR-FRET signal. […] After 60 minutes incubation at room temperature of compounds with the His-TEAD1/anti-His-Tb/Cy5-probe complex, the plate was read on a plate reader (BMG ClarioStar Cat 430-1300) using TR-FRET mode with wavelengths of 665 nm/620 nm. The potency of compounds as TEAD1 lipid pocket binders was determined by IC50 value generated using a non-linear 4 parameter curve fit.

NCI-H226 = assay: 72H TEAD Proliferation Assay (Cell Titer-Glo 2.0); assay type: cell-based; settings: Homo sapiens, NCI-H226, 72 h, CTG 2.0, cell line not given
Description: The effect of TEAD inhibition on cell proliferation was assayed using Cell Titer Glo (CTG) 2.0 to measure response in mesothelioma cell lines NCI-H226 (ATCC, #CRL-5826) and NCI-H28 (ATCC, #CRL-5820).
The 72H TEAD Proliferation assay utilizes Cell Titer-Glo 2.0 (Promega, #G9243) to measure the proliferation of cells in the presence or absence of compound. Cell Titer-Glo 2.0 determines the amount of viable cells by quantifying ATP (an indication of metabolically active cells). It utilizes the conversion of Luciferin to Oxyluciferin and a luminescent signal with the use of ATP to report the quantity of viable cells in culture. Within cells that are continually growing, ATP is being synthesized to meet their metabolic demands, meanwhile the opposite is true for cells that are dying or slowing down their proliferation and either no longer using ATP or are using less, respectively. The NF2-deficient NCI-H226 has been genetically validated as a cell line that is sensitive to TEAD inhibition. The NF2-wild type NCI-H28 has been genetically validated as a cell line that is not sensitive to TEAD inhibition and grows independently of TEAD activity.
Compounds were screened against the responsive NCI-H226 cell line to assess the compounds' ability to inhibit TEAD and cell growth. Compounds were also screened against the non-responsive NCI-H28 cell line to ascertain whether the inhibition of cell growth was due to inhibition of the target TEAD or whether the inhibition was due to off-target cytotoxicity.
1) Assay ready plates (ARPs) were prepared by Echo acoustic liquid handler. For each compound, duplicate of 10-point half-log dilution series were dispensed in a 384-well microplate (Corning 3571).
5) NCI-H226 or NCI-H28 cells were harvested from culture in Assay Medium 1 and the multidrop Combi reagent dispenser was used to seed cells at 500 cells per 50 ul in each well of the ARPs and one Corning 3571 plate without compounds for Time 0 (TO) readout.
6) The TO plate was incubated for 2 hours at 37° C. with 5% CO2 to allow cells to settle, then the CTG Assay was performed.
7) All ARPs were incubated for 72 hours at 37° C. with 5% CO2, then the CTG Assay was performed for Time 72H (T72) readout.
8) CTG Assay: Bravo liquid handler (Agilent) was used to add 25 ul of CTG 2.0 to all columns of the plate except for Column 24, which was used to subtract out the background. After CTG addition, plates were placed on shaker at 800 RPM for 15 minutes at room temperature and kept in the dark. Luminescence was measured using EnVision multilabel plate reader with ultra-sensitive detection module.
9) Data Analysis: First background luminescence (no CTG wells) was subtracted from luminescence reading of all wells, then TO luminescence was subtracted from T72 luminescence. To compare anti-proliferative effect of compounds, GI50 was obtained by fitting dose response curves with nonlinear regression curve fit.

Chain of TEAD1 protein (YAP Binding Domain) (P28347 209-426 limits assumed): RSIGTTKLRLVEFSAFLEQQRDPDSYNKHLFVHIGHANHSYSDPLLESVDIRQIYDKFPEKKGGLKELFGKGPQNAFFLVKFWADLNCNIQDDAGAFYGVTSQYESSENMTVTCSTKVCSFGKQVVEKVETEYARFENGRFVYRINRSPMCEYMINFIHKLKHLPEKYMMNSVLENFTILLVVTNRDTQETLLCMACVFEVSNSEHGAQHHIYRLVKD

SMILES	IC50 [1] [nM]	GI50 (NCI-H226) [nM]
C=CC(=O)Nc1ccc2c(c1)OC(C)(c1cccc(C(F)(F)F)c1)O2 (stereo not shown) [147*, N-(2-methyl-2-(3-(trifluoromethyl)phenyl)benzo[d][1,3]dioxol-5-yl)acrylamide]	≤ 250	250 to 1000
C=CC(=O)Nc1ccc(CCc2cccc(F)c2)c(F)c1 [Compound 1, N-(3-fluoro-4-(3-fluorophenethyl)phenyl)acrylamide]	≤ 250	1000 to 3000
C=CC(=O)Nc1ccc(OCc2cccc(F)c2)c(C2CCCCC2)c1 [Compound 3, N-(3-cyclohexyl-4-((3-fluorobenzyl)oxy)phenyl)acrylamide]	500 to 2000	> 3000
C=CC(=O)Nc1ccc(OCc2cccc(F)c2)c(C(F)(F)F)c1 [Compound 9, N-(4-((3-fluorobenzyl)oxy)-3-(trifluoromethyl)phenyl)acrylamide]	≤ 250	> 3000
C=CC(=O)Nc1ccc(OCC2CCC(F)(F)CC2)c2ccncc12 [Compound 19, N-(5-((4,4-difluorocyclohexyl)methoxy)isoquinolin-8-yl)acrylamide]	> 2000	> 3000
C=CC(=O)Nc1ccc(OCC2CCC(F)(F)CC2)cc1C#N [Compound 20, N-(2-cyano-4-((4,4-difluorocyclohexyl)methoxy)phenyl)acrylamide]	≤ 250	250 to 1000
C=CC(=O)Nc1ccc(OCC2CCC(F)(F)CC2)c2ocnc12 [Compound 21, N-(7-((4,4-difluorocyclohexyl)methoxy)benzo[d]oxazol-4-yl)acrylamide]	≤ 250	≤ 250
C=CC(=O)Nc1ccc(OCC2CCC(F)(F)CC2)c2[nH]cnc12 [Compound 22, N-(7-((4,4-difluorocyclohexyl)methoxy)-1H-benzo[d]imidazol-4-yl)acrylamide]	500 to 2000	250 to 1000
C=CC(=O)Nc1ccc(OCC2CCC(F)(F)CC2)c2ccnn12 [Compound 23, N-(4-((4,4-difluorocyclohexyl)methoxy)pyrazolo[1,5-a]pyridin-7-yl)acrylamide]	≤ 250	1000 to 3000
C=CC(=O)Nc1ccc(OCC2CCCC(F)(F)C2)c(F)c1 (stereo not shown) [Compound 24, N-(4-((3,3-difluorocyclohexyl)methoxy)-3-fluorophenyl)acrylamide]	≤ 250	≤ 250
C=CC(=O)Nc1ccc(OCc2cccc(CC)c2)c(F)c1 [Compound 26, N-(4-((3-ethylbenzyl)oxy)-3-fluorophenyl)acrylamide]	≤ 250	250 to 1000
C=CC(=O)Nc1ccc(/C=C/c2cccc(F)c2)c(F)c1 [Compound 27, (E)-N-(3-fluoro-4-(3-fluorostyryl)phenyl)acrylamide]	500 to 2000	1000 to 3000
C=CC(=O)Nc1ccc(COc2cccc(F)c2)c(F)c1 [Compound 28, N-(3-fluoro-4-((3-fluorophenoxy)methyl)phenyl)acrylamide]	250 to 500	250 to 1000
C=CC(=O)Nc1ccc(COc2cccc(C(F)(F)F)c2)c(F)c1 [Compound 31, N-(3-fluoro-4-((3-(trifluoromethyl)phenoxy)methyl)phenyl)acrylamide]	≤ 250	≤ 250
C=CC(=O)Nc1ccc(OCc2cccc(C(F)(F)F)c2)c(C#N)c1 [Compound 38, N-(3-cyano-4-((3-(trifluoromethyl)benzyl)oxy)phenyl)acrylamide]	500 to 2000	1000 to 3000
C=CC(=O)Nc1ccc(OCc2cccc(F)c2Cl)c(C#N)c1 [Compound 39, N-(4-((2-chloro-3-fluorobenzyl)oxy)-3-cyanophenyl)acrylamide]	250 to 500	≤ 250
C=CC(=O)Nc1ccc(OCc2cccc(F)c2)cc1F [Compound 45, N-(2-fluoro-4-((3-fluorobenzyl)oxy)phenyl)acrylamide]		> 3000
C=CC(=O)Nc1cc2nc(CCCC(F)(F)F)oc2cc1F [Compound 133, N-(6-fluoro-2-(4,4,4-trifluorobutyl)benzo[d]oxazol-5-yl)acrylamide]		≤ 250
